Key:
Assay in all cases: normalized area under the dose-response curve (viability relative to DMSO control) (fraction); higher = less sensitive (more viable cells)
Details in all cases: exposure time not given
AMO1 (cancer type: MM) = test system: AMO1 (cancer type: MM)
Experimental: (§1)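 25 myeloma and 15 non-Hodgkin lymphoma cell lines were exposed to each of 76 drugs as 7-point log dilutions (0.01 nM–10 µM) in duplicate. Viability was read with CellTiter-Glo and normalised to DMSO (0.1%) and staurosporine (10 µM) plate controls. Normalised AUC was calculated by the trapezoidal method relative to the negative control.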

EJM (cancer type: MM) = test system: EJM (cancer type: MM)
Experimental: as §1

FR4 (cancer type: MM) = test system: FR4 (cancer type: MM)
Experimental: as §1

[1] = test system: Granta-519 (cancer type: Mantle)
Experimental: as §1

[2] = test system: HuT 78 (cancer type: TCL)
Experimental: as §1

JJN3 (cancer type: MM) = test system: JJN3 (cancer type: MM)
Experimental: as §1

[3] = test system: JVM2 (cancer type: Mantle)
Experimental: as §1

[4] = test system: JeKo-1 (cancer type: Mantle)
Experimental: as §1

KMS11 (cancer type: MM) = test system: KMS11 (cancer type: MM)
Experimental: as §1

[5] = test system: KMS12PE (cancer type: MM)
Experimental: as §1

KMS18 (cancer type: MM) = test system: KMS18 (cancer type: MM)
Experimental: as §1

KMS26 (cancer type: MM) = test system: KMS26 (cancer type: MM)
Experimental: as §1

[6] = test system: KMS28BM (cancer type: MM)
Experimental: as §1

[7] = test system: KMS28PE (cancer type: MM)
Experimental: as §1

KMS34 (cancer type: MM) = test system: KMS34 (cancer type: MM)
Experimental: as §1

[8] = test system: Karpas-299 (cancer type: TCL)
Experimental: as §1

L363 (cancer type: MM) = test system: L363 (cancer type: MM)
Experimental: as §1

LP1 (cancer type: MM) = test system: LP1 (cancer type: MM)
Experimental: as §1

MM1.R (cancer type: MM) = test system: MM1.R (cancer type: MM)
Experimental: as §1

MM1.S (cancer type: MM) = test system: MM1.S (cancer type: MM)
Experimental: as §1

[9] = test system: Mino (cancer type: Mantle)
Experimental: as §1

My-La (cancer type: TCL) = test system: My-La (cancer type: TCL)
Experimental: as §1

[10] = test system: NCI-H929 (cancer type: MM)
Experimental: as §1

[11] = test system: OCI-LY1 (cancer type: DLBCL)
Experimental: as §1

[12] = test system: OCI-LY19 (cancer type: DLBCL)
Experimental: as §1

[13] = test system: OCI-LY3 (cancer type: DLBCL)
Experimental: as §1

[14] = test system: OCI-MY5 (cancer type: MM)
Experimental: as §1

[15] = test system: OCI-MY5/CRBN (cancer type: MM)
Experimental: as §1

[16] = test system: OCI-MY5/Vec (cancer type: MM)
Experimental: as §1

[17] = test system: OCI-MY7 (cancer type: MM)
Experimental: as §1

OPM2 (cancer type: MM) = test system: OPM2 (cancer type: MM)
Experimental: as §1

[18] = test system: RPMI 8226 (cancer type: MM)
Experimental: as §1

SKMM2 (cancer type: MM) = test system: SKMM2 (cancer type: MM)
Experimental: as §1

[19] = test system: SR-786 (cancer type: TCL)
Experimental: as §1

[20] = test system: SU-DHL1 (cancer type: TCL)
Experimental: as §1

[21] = test system: SU-DHL2 (cancer type: DLBCL)
Experimental: as §1

[22] = test system: SU-DHL6 (cancer type: DLBCL)
Experimental: as §1

Se-Ax (cancer type: TCL) = test system: Se-Ax (cancer type: TCL)
Experimental: as §1

U266 (cancer type: MM) = test system: U266 (cancer type: MM)
Experimental: as §1

XG2 (cancer type: MM) = test system: XG2 (cancer type: MM)
Experimental: as §1

| SMILES | normalized area under the dose-response curve (AMO1 (cancer type: MM)) | normalized area under the dose-response curve (EJM (cancer type: MM)) | normalized area under the dose-response curve (FR4 (cancer type: MM)) | normalized area under the dose-response curve [1] | normalized area under the dose-response curve [2] | normalized area under the dose-response curve (JJN3 (cancer type: MM)) | normalized area under the dose-response curve [3] | normalized area under the dose-response curve [4] | normalized area under the dose-response curve (KMS11 (cancer type: MM)) | normalized area under the dose-response curve [5] | normalized area under the dose-response curve (KMS18 (cancer type: MM)) | normalized area under the dose-response curve (KMS26 (cancer type: MM)) | normalized area under the dose-response curve [6] | normalized area under the dose-response curve [7] | normalized area under the dose-response curve (KMS34 (cancer type: MM)) | normalized area under the dose-response curve [8] | normalized area under the dose-response curve (L363 (cancer type: MM)) | normalized area under the dose-response curve (LP1 (cancer type: MM)) | normalized area under the dose-response curve (MM1.R (cancer type: MM)) | normalized area under the dose-response curve (MM1.S (cancer type: MM)) | normalized area under the dose-response curve [9] | normalized area under the dose-response curve (My-La (cancer type: TCL)) | normalized area under the dose-response curve [10] | normalized area under the dose-response curve [11] | normalized area under the dose-response curve [12] | normalized area under the dose-response curve [13] | normalized area under the dose-response curve [14] | normalized area under the dose-response curve [15] | normalized area under the dose-response curve [16] | normalized area under the dose-response curve [17] | normalized area under the dose-response curve (OPM2 (cancer type: MM)) | normalized area under the dose-response curve [18] | normalized area under the dose-response curve (SKMM2 (cancer type: MM)) | normalized area under the dose-response curve [19] | normalized area under the dose-response curve [20] | normalized area under the dose-response curve [21] | normalized area under the dose-response curve [22] | normalized area under the dose-response curve (Se-Ax (cancer type: TCL)) | normalized area under the dose-response curve (U266 (cancer type: MM)) | normalized area under the dose-response curve (XG2 (cancer type: MM)) |
| --- | --- | --- | --- | --- | --- | --- | --- | --- | --- | --- | --- | --- | --- | --- | --- | --- | --- | --- | --- | --- | --- | --- | --- | --- | --- | --- | --- | --- | --- | --- | --- | --- | --- | --- | --- | --- | --- | --- | --- | --- |
| CC(C)C[C@H](NC(=O)[C@H](Cc1ccccc1)NC(=O)c1cnccn1)B(O)O [Bortezomib] | 0.0751 | 0.0632 | 0.7 | 0.0456 | 0.192 | 0.343 | 0.0575 | 0.009 | 0.131 | 0.26 | 0.0645 | 0.0685 | 0.0704 | 0.0881 | 0.196 | 0.332 | 0.0891 | 0.255 | 0.06 | 0.09 | 0.0129 | 0.23 | 0.09 | 0.0798 | 0.111 | 0.0249 | 0.116 | 0.0146 | 0.015 | 0.08 | 0.197 | 0.261 | 0.212 | 0.285 | 0.1 | 0.0391 | 0.536 | 0.102 | 0.167 | 0.05 |
| CC(=O)O[C@H]1C(=O)[C@@]2(C)[C@H]([C@H](OC(=O)c3ccccc3)[C@]3(O)C[C@H](OC(=O)[C@H](O)[C@@H](NC(=O)c4ccccc4)c4ccccc4)C(C)=C1C3(C)C)[C@]1(OC(C)=O)CO[C@@H]1C[C@@H]2O [Paclitaxel] | 0.595 | 0.751 | 0.703 | 0.544 | 0.329 | 0.993 | 0.78 | 0.3 | 0.853 | 0.85 | 0.702 | 0.767 | 0.698 | 0.675 | 0.787 | 0.454 | 0.726 | 0.865 | 0.58 | 0.52 | 0.556 | 0.896 | 0.49 | 0.354 | 0.652 | 0.582 | 0.666 | 0.595 | 0.478 | 0.86 | 0.89 | 0.781 | 0.98 | 0.417 | 0.611 | 0.642 | 0.793 | 0.635 | 0.51 | 0.542 |
| COc1cc2nccc(Oc3ccc(NC(=O)C4(C(=O)Nc5ccc(F)cc5)CC4)cc3)c2cc1OC [Cabozantinib] | 0.715 | 0.756 | 0.743 | 0.863 | 0.762 | 0.706 | 0.63 | 0.852 | 0.628 | 0.72 | 0.789 | 0.94 | 0.793 | 0.645 | 0.68 | 0.918 | 0.762 | 0.803 | 0.59 | 0.59 | 0.951 | 0.94 | 0.61 | 0.956 | 0.867 | 0.865 | 0.605 | 0.858 | 0.729 | 0.82 | 0.631 | 0.719 | 0.798 | 0.964 | 0.895 | 0.917 | 0.91 | 0.721 | 0.672 | 0.734 |
| CC(=O)Nc1cccc(-n2c(=O)n(C3CC3)c(=O)c3c(Nc4ccc(I)cc4F)n(C)c(=O)c(C)c32)c1 [Trametinib] | 0.575 | 0.838 | 0.967 | 0.913 | 0.672 | 0.858 | 0.561 | 0.986 | 0.869 | 0.8 | 0.779 | 0.774 | 0.861 | 0.867 | 0.681 | 0.794 | 0.835 | 0.64 | 0.67 | 0.71 | 0.948 | 0.868 | 0.6 | 0.908 | 0.898 | 0.865 | 0.764 | 0.969 | 0.943 | 0.67 | 0.719 | 0.909 | 0.964 | 0.877 | 0.501 | 0.77 | 0.841 | 0.713 | 0.922 | 0.727 |

— the supplement of paper PMC7214452
